Data: PubChem BioAssay (NCI)
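Method: 48-hour compound exposure of cells in 96-well plates, five concentrations, linear interpolation of endpoints. TGI is the concentration that stops growth completely.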

What was measured:
Assay in all cases: NCI tumour cell line growth inhibition, 48 h
[1] = test system: 786-0 renal
[2] = test system: A498 renal
[3] = test system: A549 NSCLC
[4] = test system: ACHN renal
[5] = test system: CAKI-1 renal
[6] = test system: CCRF-CEM leukemia
[7] = test system: COLO 205 colon
[8] = test system: DLD-1 colon
[9] = test system: DMS 114 small cell lung
[10] = test system: DMS 273 small cell lung
[11] = test system: EKVX NSCLC
[12] = test system: HCC-2998 colon
[13] = test system: HCT-116 colon
[14] = test system: HCT-15 colon
[15] = test system: HL-60(TB) leukemia
[16] = test system: HOP-18 NSCLC
[17] = test system: HOP-62 NSCLC
[18] = test system: HOP-92 NSCLC
[19] = test system: HT29 colon
[20] = test system: IGROV1 ovarian
[21] = test system: K-562 leukemia
[22] = test system: KM12 colon
[23] = test system: KM20L2 colon
[24] = test system: LOX IMVI melanoma
[25] = test system: LXFL 529 NSCLC
[26] = test system: M14 melanoma
[27] = test system: M19-MEL melanoma
[28] = test system: MALME-3M melanoma
[29] = test system: MOLT-4 leukemia
[30] = test system: NCI-H226 lung
[31] = test system: NCI-H23 lung
[32] = test system: NCI-H460 lung
[33] = test system: NCI-H522 lung
[34] = test system: OVCAR-3 ovarian
[35] = test system: OVCAR-4 ovarian
[36] = test system: OVCAR-5 ovarian
[37] = test system: OVCAR-8 ovarian
[38] = test system: RPMI-8226 leukemia
[39] = test system: RXF 393 renal
[40] = test system: SF-268 CNS
[41] = test system: SF-295 CNS
[42] = test system: SF-539 CNS
[43] = test system: SK-MEL-2 melanoma
[44] = test system: SK-MEL-28 melanoma
[45] = test system: SK-MEL-5 melanoma
[46] = test system: SK-OV-3 ovarian
[47] = test system: SN12C renal
[48] = test system: SNB-19 CNS
[49] = test system: SNB-75 CNS
[50] = test system: SNB-78 CNS
[51] = test system: SR leukemia
[52] = test system: SW-620 colon
[53] = test system: TK-10 renal
[54] = test system: U251 CNS
[55] = test system: UACC-257 melanoma
[56] = test system: UACC-62 melanoma
[57] = test system: UO-31 renal
[58] = test system: XF 498 CNS
[59] = test system: RXF-631 renal

Measured: TGI

C=CCn1c2c(sc1=S)C(S)N=CN2 (stereo unspecified)
55 µM: [18]
70.1 µM: [16]
not listed: [59]
> 100 µM: all other assays above

O=C(O)CSc1n[nH]c(Cc2ccccc2)n1
not listed: [2] | [7] | [10] | [23] | [49]
> 100 µM: all other assays above

COc1cc(C2C(C(=O)Nc3cc(F)c(F)cc3F)=C(C)NC(C)=C2C(=O)Nc2cc(F)c(F)cc2F)ccc1O
55.3 µM: [2] | [41]
37.9 µM: [59]
84.5 µM: [47]
38 µM: [34]
45.2 µM: [29]
59.6 µM: [42]
65.3 µM: [4]
36.3 µM: [33]
33.4 µM: [12]
25.8 µM: [49]
40.7 µM: [15]
97.9 µM: [17]
41.8 µM: [9]
42.8 µM: [5]
35.8 µM: [22]
35.5 µM: [57]
87.9 µM: [53]
74.5 µM: [28]
49.6 µM: [21]
73.9 µM: [11]
79.5 µM: [30]
96.7 µM: [37]
52.2 µM: [39]
59.9 µM: [36]
33.1 µM: [58]
77.3 µM: [27]
95.8 µM: [3]
47.3 µM: [38]
32.9 µM: [24]
54.8 µM: [55]
18.4 µM: [18]
52.8 µM: [31]
79.1 µM: [43]
45.6 µM: [6]
53.9 µM: [45]
not listed: [10] | [13] | [14] | [16] | [46] | [51] | [56]
> 100 µM: all other assays above

CC(=O)OCCOCNC(=S)N/N=C/c1ccc(Br)s1
> 40.2 µM: [15]
not listed: [5] | [59]
> 100 µM: all other assays above
